Assay results: patent publication US4239901A, “Pyrazol-1-ylphenylacetic acids” (Byk Gulden Lomberg Chemische Fabrik GmbH, priority 1976, dated 1980)
Where two headings read alike, the source gives them in different places.

Tests used:
[1] = in vivo; details: mouse, ip
[2] = system: pain reaction provoked in the rat through bending of an inflamed ankle joint; assay: Analgesic effect, pain reaction provoked through bending of an inflamed ankle joint (AgNO3 inflammation); details: for ED25: Rattus norvegicus, po, read-out: Analgesic effect ED25 (= dose which in 25% of the animals completely suppresses the pain reaction); for Therap. Quotient LD50/ED25: Table 5, LD50 mouse i.p. / ED25 rat oral, analgesic
Experimental: The influence of the compounds which were to be tested on the pain reaction provoked in the rat through bending of an inflamed tarsal joint (AgNO3 inflammation) was determined as follows:
In imitation of HOFFMEISTER et al [Arzneim.Forsch. […] The animals are kept at 24° C. and receive as food Altromin®R and water ad libitum. […] All the positively-reacting animals are concentrated in groups of 10 animals. The compounds which are to be tested are administered orally in a liquid volume of 20 ml/kg 1 hour before the AgNO3 application; the untreated control animals receive the corresponding amount of tap water.
Within 5 hours after administration of the substance the number of reacting animals is ascertained at hourly intervals.
As measure for the analgesic effect there serves the maximum % proportion of the protected animals within 5 hours after administration of the substance [referred to the number of reacting animals of the control group (=100%)]

[3] = system: carrageenin oedema of rat hind paw; assay: Inhibition of carrageenin oedema of rat hind paw; details: for ED40 / inhibition at 100 mg/kg: Rattus norvegicus; for ED40: po, read-out: Inhibition of carrageenin oedema of rat hind paw by 40% (=ED40) after single oral dose; for Therapeutic Quotient LD50/ED40: Table 2, LD50 mouse i.p. / ED40 rat oral; for inhibition at 100 mg/kg: read-out: oedema inhibition
Experimental: The influence of the compounds which were to be tested on carrageenin oedema of rat hind paw was determined as follows:
Female Sprague-Dawley rats (groups of, in each instance, 10 animals; weight of each animal 140-170 g) from which food (Altromin®R, water ad libitum) is withheld about 16 hours beforehand are each injected subplantarly in the right hind paw with 0.05 ml of a 1% strength carrageenin suspension 1 hour after oral administration of the compounds which are to be tested. The rats are kept at 24° C.
The determination of the paw volume of each rat (in each case, 2-3 individual measurements) is effected plethysmometrically before and 2 and 4 hours after oedema provocation.
As measure for the antiphlogistic effect there serves the average percentage oedema inhibition (i.e. the average from the measured values obtained 3 and 5 hours after administration of the substance).
The determination of the paw volume is effected plethysmometrically. Measuring principle: the liquid volume displaced by the rat paw is registered digitally via an electromechanical pressure converter (Statham P 23 V, 0-200 mm Hg).
The stated doses of the medicaments tested were administered in a liquid volume of 20 ml/kg.

[4] = system: granulation tissue formation in the rat; details: Table 3; for Therapeutic Quotient LD50/ED20: LD50 mouse i.p. / ED20 rat oral
Experimental: Test procedure for the investigation of the influence of the compounds which are to be tested on granulation tissue formation after cotton-wool implantation in the rat (so-called cotton pellet method):
Closure of the skin cut is effected by means of clips.
On seven consecutive days the compounds which are to be tested (as sodium salt in aqueous solution) or the corresponding amount (5 ml/kg/day) of tap water (=control group) are administered orally daily.
On the eighth day the animals are killed, the cotton-wool granulomata are cautiously freed without cutting, i.e. preserving the fibrous capsule, dried (15 hours at 120° C.) and weighed. By deducting the weight component of the cotton-wool pellets the amount of newly formed granulation tissue is obtained.
As measure for the anti-proliferative effect of a compound there serves the percentage lessening of the average granuloma dry weight of a treated group (=16 granulomata) compared to the control group (=100%).

[5] = system: yeast fever of the rat; assay: Antipyretic effect, yeast fever of the rat; format: in vivo, rat (female Sprague-Dawley); details: read-out: Antipyretic effect ED0.75 (dose which lowers the yeast fever of the rat by 0.75° C.)
Experimental: The antipyretic effect is determined from the influence of the compounds to be tested on the yeast fever of the rat.
In female Sprague-Dawley rats (in each series of experiments, 30 rats in groups of 5 animals; animal weight 170-200 g) a hyperthermia is produced through subcutaneous injection (neck) of 20 ml/kg of a 20% strength aqueous brewer's yeast suspension (brewers' yeast "Heliosan"/Hefereformwerk Radolfzell). 24 hours after the yeast injection, the body temperature is measured rectally at hourly intervals.
After a preliminary measurement the compounds which are to be tested are administered to the animals orally in a liquid volume of 5 ml/kg; a control group receives the corresponding amount of tap water. Food (Altromin®R, water ad libitum) was withheld from the rats 18 hours beforehand. The rats are kept at about 23° C.
As measure for the antipyretic effect there serves the maximum lowering of temperature (with reference to the temperature of the preliminary measurement, i.e. immediately before administration of the substance) in the course of 4 hours. The body temperature is measured with a Iastomed H (Braun electronic).

[6] = system: adjuvant arthritis in the rat (Mycobacterium butyricum); assay: Anti-arthritic effect (adjuvant arthritis); format: in vivo, rat (male Sprague-Dawley); details: Table 4, LD50 mouse i.p. / ED25 rat oral
Experimental: In imitation of the method described by NEWBOULD and PERRINE et al. [NEWBOULD, B. B.; Brit. […] Pharmacodyn. […] Antiphlogistic agents inhibit this swelling reaction.
Male Sprague-Dawley rats (150-190 g) are each injected intradermally into the tail root on day zero with 0.1 ml/animal of a 0.5% strength Myobact. butyrum/paraffin oil suspension. […] On the 17th day after administration of adjuvant, all positively-reacting animals (paw volume increase at least 30%) are selected and concentrated in groups of 10 animals with equal paw volume distribution.
The compounds to be tested are now administered on the following 5 days, that is to say from the 17th to the 21st day after administration of adjuvant, once daily orally in 10 ml/kg of liquid.
As measure for the anti-arthritic effect there serves the decrease of the paw swelling on the 21st day after the administration of adjuvant, referred in each case to the paw swelling of the control group (=100%); the paw volume is determined plethysmometrically.

[7] = system: mouse; details: for Lethal effect LD50 after single intraperitoneal administration to the mouse: Table 3, single i.p.; for LD50 after a single administration mouse: Table 4, single i.p.; for Toxicity after single intraperitoneal administration to the mouse LD50: Table 5, single i.p.; for Toxicity after single intraperitoneal administration in the mouse LD50: Table 6, single i.p.

SMILES: CC(C(=O)[O-])c1cc(Cl)c(-n2cccn2)cc1Cl.[Na+] (stereo not drawn)
- LD50 [1]: 1050 mg/kg
- ED25 [2]: 2.5 mg/kg
- Therap. Quotient LD50/ED25 [2]: 420

SMILES: CC(C(=O)O)c1ccc(-n2cc(Cl)cn2)c(Cl)c1 (stereo not drawn) [I, 2-[3-chloro-4-(4-chloropyrazol-1-yl)phenyl]-propionic acid]
- ED40 [3]: 5 mg/kg
- Therapeutic Quotient LD50/ED40 [3]: 65
- Therapeutic Quotient LD50/ED20 [4]: 108.3
- Inhibition of granulation tissue formation after subcutaneous cotton-wool implantation by 20% (=ED20) in the rat after 7-day oral administration [4]: 3 mg/kg/die
- ED (0.75 degC) ([5]; Table 6, rat, oral): 3.5 mg/kg
- LD50 [1]: 325 mg/kg
- Therapeutic Quotient LD50/ED25 [6]: 1625
- Lethal effect LD50 after single intraperitoneal administration to the mouse [7]: 325 mg/kg i.p.
- LD50 after a single administration mouse [7]: 325 mg/kg i.p.
- Toxicity after single intraperitoneal administration to the mouse LD50 [7]: 325 mg/kg i.p.
- Toxicity after single intraperitoneal administration in the mouse LD50 [7]: 325 mg/kg i.p.
- ED25 [2]: 0.4 mg/kg
- Therap. Quotient LD50/ED25 [2]: 813

SMILES: O=C(O)Cc1ccc(-n2cc(Cl)cn2)cc1 [II, 4-(4-chloropyrazol-1-yl)phenylacetic acid]
- ED40 [3]: 8 mg/kg
- Therapeutic Quotient LD50/ED40 [3]: 58
- LD50 [1]: 460 mg/kg

SMILES: O=C(O)Cc1ccc(-n2cc(Br)cn2)cc1 [III, 4-(4-bromopyrazol-1-yl)phenylacetic acid]
- ED40 [3]: 4 to 5 mg/kg
- Therapeutic Quotient LD50/ED40 [3]: 122
- ED (0.75 degC) ([5]; Table 6, rat, oral): 20 mg/kg
- LD50 [1]: 550 mg/kg
- Toxicity after single intraperitoneal administration to the mouse LD50 [7]: 550 mg/kg i.p.
- Toxicity after single intraperitoneal administration in the mouse LD50 [7]: 550 mg/kg i.p.
- ED25 [2]: 1.2 mg/kg
- Therap. Quotient LD50/ED25 [2]: 458

SMILES: O=C(O)Cc1ccc(-n2cc(Cl)cn2)c(Cl)c1 [IV, 3-chloro-4-(4-chloropyrazol-1-yl)phenylacetic acid]
- ED40 [3]: 2 mg/kg
- Therapeutic Quotient LD50/ED40 [3]: 230
- Therapeutic Quotient LD50/ED20 [4]: 23.0
- Inhibition of granulation tissue formation after subcutaneous cotton-wool implantation by 20% (=ED20) in the rat after 7-day oral administration [4]: 20 mg/kg/die
- LD50 [1]: 460 mg/kg
- Therapeutic Quotient LD50/ED25 [6]: 657
- Lethal effect LD50 after single intraperitoneal administration to the mouse [7]: 460 mg/kg i.p.
- LD50 after a single administration mouse [7]: 460 mg/kg i.p.
- Toxicity after single intraperitoneal administration to the mouse LD50 [7]: 460 mg/kg i.p.
- ED25 [2]: 2.5 mg/kg
- Therap. Quotient LD50/ED25 [2]: 184

SMILES: CCCCC1C(=O)N(c2ccccc2)N(c2ccccc2)C1=O [IX, phenylbutazone, reference compound]
- ED40 [3]: 40 mg/kg
- Inhibition of granulation tissue formation after subcutaneous cotton-wool implantation by 20% (=ED20) in the rat after 7-day oral administration [4]: 100 mg/kg/die
- ED (0.75 degC) ([5]; Table 6, rat, oral): 15 mg/kg
- ED25 [2]: 2 mg/kg

SMILES: CC(C(=O)O)c1ccc(-n2cc(Br)cn2)c(Cl)c1 (stereo not drawn) [V, 2-[3-chloro-4-(4-bromopyrazol-1-yl)phenyl] acid]
- ED40 [3]: 2 mg/kg
- Therapeutic Quotient LD50/ED40 [3]: 163
- Therapeutic Quotient LD50/ED20 [4]: ~ 32.5
- Inhibition of granulation tissue formation after subcutaneous cotton-wool implantation by 20% (=ED20) in the rat after 7-day oral administration [4]: ~ 10 mg/kg/die
- ED (0.75 degC) ([5]; Table 6, rat, oral): 5 mg/kg
- LD50 [1]: 325 mg/kg
- Therapeutic Quotient LD50/ED25 [6]: 1625
- ED25 [2]: 0.8 mg/kg
- Therap. Quotient LD50/ED25 [2]: 406

SMILES: CC(C(=O)O)c1cc(Cl)c(-n2cc(Br)cn2)cc1Cl (stereo not drawn) [VII, 2-[2,5-dichloro-4-(4-bromopyrazol-1-yl)phenyl]propionic acid]
- LD50 [1]: 285 mg/kg
- ED25 [2]: 1.2 mg/kg
- Therap. Quotient LD50/ED25 [2]: 238

SMILES: O=C(O)Cc1ccc(-n2cccn2)cc1 [VIII, 4-(pyrazol-1-yl)phenylacetic acid]
- ED40 [3]: 8 mg/kg
- Therapeutic Quotient LD50/ED40 [3]: 150
- ED (0.75 degC) ([5]; Table 6, rat, oral): 32 mg/kg
- LD50 [1]: 1200 mg/kg
- Toxicity after single intraperitoneal administration in the mouse LD50 [7]: 1200 mg/kg i.p.

SMILES: COc1ccc2c(c1)c(CC(=O)O)c(C)n2C(=O)c1ccc(Cl)cc1 [X, indomethacin, reference compound]
- ED40 [3]: 4 mg/kg
- Therapeutic Quotient LD50/ED40 [3]: 11
- Therapeutic Quotient LD50/ED20 [4]: 12.8
- Inhibition of granulation tissue formation after subcutaneous cotton-wool implantation by 20% (=ED20) in the rat after 7-day oral administration [4]: 3-5 mg/kg/die
- ED (0.75 degC) ([5]; po): 2.5 mg/kg
- LD50 [1]: 45 mg/kg
- Therapeutic Quotient LD50/ED25 [6]: 450
- Lethal effect LD50 after single intraperitoneal administration to the mouse [7]: 45 mg/kg i.p.
- LD50 after a single administration mouse [7]: 45 mg/kg i.p.
- Toxicity after single intraperitoneal administration to the mouse LD50 [7]: 45 mg/kg i.p.
- Toxicity after single intraperitoneal administration in the mouse LD50 [7]: 45 mg/kg i.p.
- ED25 [2]: 0.3 mg/kg
- Therap. Quotient LD50/ED25 [2]: 150

SMILES: Cn1nc(-c2ccc(CC(=O)O)cc2)cc1-c1ccccc1 [XI, 4-(1-methyl-5-phenylpyrazol-3-yl)phenylacetic acid, reference compound]
- ED40 [3]: > 100 mg/kg
- inhibition at 100 mg/kg [3]: 25%
- Therapeutic Quotient LD50/ED40 [3]: < 4
- LD50 [1]: 430 mg/kg

SMILES: O=C(O)Cc1ccc(-c2cc(-c3ccccc3)n(-c3ccccc3)n2)cc1 [XII, 4-(1,5-diphenyl-pyrazol-3-yl)phenylacetic acid, reference compound]
- ED40 [3]: 63 mg/kg
- Therapeutic Quotient LD50/ED40 [3]: 3
- LD50 [1]: 200 mg/kg

SMILES: CN1N=C(c2ccc(CC(=O)O)cc2)CC1c1ccccc1 (stereo not drawn) [XIII, 4-(1-methyl-5-phenyl-2-pyrazoline-3-yl)phenylacetic acid, reference compound]
- ED40 [3]: > 100 mg/kg
- inhibition at 100 mg/kg [3]: 25%
